Experimental findings from patent US20160185837A1 (Medimmune Limited, priority 2013, published 2016) are described below.

By EC50 is commonly meant the concentration that produces a half-maximal response.

Where two headings read alike, the source gives them in different places. Ends that are not written are not given here.

The test system of one data set is cyno GCGr (cGCGr). In words: cAMP assay, cells expressing cyno GCGr, 4.2% cyno serum albumin. In kind it is cell-based, cynomolgus monkey. The conditions noted are these: culture medium containing 4.2% cyno serum albumin. The source says:
In certain aspects, the assay can also be carried out in medium supplemented with serum albumin that corresponds to the receptor being tested, e.g., human serum albumin for testing cAMP activity at hGIPr or hGLP-1r, rat serum albumin for testing cAMP activity at rGIPr or rGLP-1r, and so on. Low protein binding 384-well plates (Greiner #781280) were used to perform eleven 1 in 5 serial dilutions of test samples that were made in assay medium. All sample dilutions were made in duplicate.
A frozen cryo-vial of cells expressing the receptor of interest was thawed rapidly in a water-bath, transferred to pre-warmed assay media and spun at 240×g for 5 minutes. Cells were re-suspended in assay buffer at an optimized concentration (e.g., hGLP-1r and hGIPr cells at 0.5×10^5 cells/ml). […]
cAMP levels were measured using a commercially available cAMP dynamic 2 HTRF kit (Cisbio, Cat #62AM4PEJ), following the two step protocol as per manufacturer's recommendations. […] Plates were incubated at room temperature for one hour and then read on an Envision (Perkin Elmer) using excitation wavelength of 320 nm and emission wavelengths of 620 nm & 665 nm. Data was transformed to % Delta F as described in manufacturer's guidelines and then transformed to percent activation of maximal native agonist response and analysed by 4-parameter logistic fit to determine EC50 values.

The next data set has as its target T1, cyno GLP-1r (cGLP-1r) (Macaca fascicularis, UniProt F8V479).
T1 construct: expressed in transfected cells
Kind of data set: cAMP assay, cells expressing cyno GLP-1r, 4.2% cyno serum albumin. In kind it is cell-based, cynomolgus monkey. The source says: In certain aspects, the assay can also be carried out in medium supplemented with serum albumin that corresponds to the receptor being tested, e.g., human serum albumin for testing cAMP activity at hGIPr or hGLP-1r, rat serum albumin for testing cAMP activity at rGIPr or rGLP-1r, and so on. […] All sample dilutions were made in duplicate.
A frozen cryo-vial of cells expressing the receptor of interest was thawed rapidly in a water-bath, transferred to pre-warmed assay media and spun at 240×g for 5 minutes. Cells were re-suspended in assay buffer at an optimized concentration (e.g., hGLP-1r and hGIPr cells at 0.5×10^5 cells/ml).
To this, 5 μL cell suspension was added and the plates incubated at room temperature for 30 minutes.
cAMP levels were measured using a commercially available cAMP dynamic 2 HTRF kit (Cisbio, Cat #62AM4PEJ), following the two step protocol as per manufacturer's recommendations. In brief; anti-cAMP cryptate (donor fluorophore) and cAMP-d2 (acceptor fluorophore) were made up separately by diluting each 1/20 in conjugate & lysis buffer provided in the kit. […] Data was transformed to % Delta F as described in manufacturer's guidelines and then transformed to percent activation of maximal native agonist response and analysed by 4-parameter logistic fit to determine EC50 values.
On the technique in general: Changes in cAMP serve as a functional read-out for many G protein-coupled receptors.

Data set [1] in a line: Extended pharmacokinetics, serum ELISA for protein (Fc) detection. In kind it is in vivo, CD male rats. The note with it: 1 mg/kg subcutaneously or intravenously, serum out to 168 hours. As to the method:
More extended pharmacokinetic assays to determine protein stability and activity were performed as follows. CD male rats (n=3) were injected subcutaneously or intravenously with 1 mg/kg IP088 or GLP1a-Fc. Periodic serum samples were obtained out to 168 hours. The serum samples were subjected to ELISA for protein (Fc) detection by the following method. ELISA plates (Costar 3690) were coated with Mouse anti-human IgG (JCD-10) 1/500 in PBS (final concentration 1 μg/ml). […] was added to each well and the plates were incubated overnight at 4° C. Following washing with PBS-Tween (PBS-T), the plates were blocked with […] 1% BSA in PBS for 1 h at RT with gentle shaking. Following washing with PBS-T, standards, and dilutions of […] samples were added (50 μl/well), and the plate was incubated for 2 h at RT with gentle shaking. Following washing […] biotinylated mouse anti-human IgG (JCD-10) diluted 1/1000 in ELISA incubation buffer (final concentration 0.5 μg/ml) was added to each well and the plates were incubated for 1 h at RT with gentle shaking. Following washing […] of Streptavidin-HRP diluted 1/1000 in ELISA incubation buffer was added to each well, and the plates were incubated for 45 min at RT with gentle shaking. […]
Background: In an ELISA, binding on a coated surface is turned into a signal by an enzyme label.

T1 sequence (F8V479 24-463): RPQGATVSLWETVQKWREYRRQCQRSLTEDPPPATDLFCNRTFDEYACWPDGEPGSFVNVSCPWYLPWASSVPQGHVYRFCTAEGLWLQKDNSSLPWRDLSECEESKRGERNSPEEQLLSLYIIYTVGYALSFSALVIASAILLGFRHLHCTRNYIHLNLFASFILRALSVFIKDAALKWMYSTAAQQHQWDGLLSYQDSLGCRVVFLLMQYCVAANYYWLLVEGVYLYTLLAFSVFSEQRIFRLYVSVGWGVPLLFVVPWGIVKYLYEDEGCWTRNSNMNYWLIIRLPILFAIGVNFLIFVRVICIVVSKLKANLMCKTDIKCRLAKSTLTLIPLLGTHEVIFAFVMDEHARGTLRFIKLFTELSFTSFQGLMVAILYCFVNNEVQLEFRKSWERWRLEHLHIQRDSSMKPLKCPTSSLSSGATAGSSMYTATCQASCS

In the data set with cyno GCGr (cGCGr), “hGCG: native human glucagon, comparator in cAMP assays” yielded an EC50 of 0.0036 nM.

Consider `CCCCCCCCCCCCCCCC(=O)N[C@@H](CCC(=O)NCCCC[C@H](NC(=O)[C@H](C)NC(=O)[C@H](C)NC(=O)[C@H](CCC(N)=O)NC(=O)CNC(=O)[C@H](CCC(=O)O)NC(=O)[C@H](CC(C)C)NC(=O)[C@H](Cc1ccc(O)cc1)NC(=O)[C@H](CO)NC(=O)[C@H](CO)NC(=O)[C@@H](NC(=O)[C@H](CC(=O)O)NC(=O)[C@H](CO)NC(=O)[C@@H](NC(=O)[C@H](Cc1ccccc1)NC(=O)[C@@H](NC(=O)CNC(=O)[C@H](CCC(=O)O)NC(=O)[C@H](C)NC(=O)[C@@H](N)Cc1cnc[nH]1)[C@@H](C)O)[C@@H](C)O)C(C)C)C(=O)N[C@@H](CCC(=O)O)C(=O)N[C@@H](Cc1ccccc1)C(=O)N[C@H](C(=O)N[C@@H](C)C(=O)N[C@@H](Cc1c[nH]c2ccccc12)C(=O)N[C@@H](CC(C)C)C(=O)N[C@H](C(=O)N[C@@H](CCCNC(=N)N)C(=O)NCC(=O)N[C@@H](CCCNC(=N)N)C(=O)NCC(=O)O)C(C)C)[C@@H](C)CC)C(=O)O` [liraglutide], for which the concentration giving a half-maximal response (EC50) on cyno GLP-1r (cGLP-1r) worked out at 0.025 nM.

As for “GLP1a-Fc: GLP-1 analogue-Fc (gamma4) fusion control; GLP-1 agonist; Peptide SEQ ID NO:62-Fc, SEQ ID NO:189 (HGEGTFTSDVSSYLEEQAAKEFIAWLVKGR; also: Fc (gamma4) fusion)”, the EC50 in the data set with cyno GLP-1r (cGLP-1r) (culture medium containing 4.2% cyno serum albumin, read-out: EC50 for cGLP-1r) is 0.011 nM; in the data set with cyno GCGr (cGCGr), above 1000 nM. Also, the “PK profile by Fc ELISA (Cmax, bioavailability, half-life), in words” value in data set [1] is “equivalent PK profiles”.
